The values below come from publication PMC4383205, “Structure of a low-population intermediate state in the release of an enzyme product” (eLife, 2015).

This assay addresses T1, human lysozyme (Homo sapiens, UniProt P61626).
T1 construct: gene LYZ; wild type, expressed in Pichia pastoris (residues 1 to 130)
T1 sequence (P61626 19-148): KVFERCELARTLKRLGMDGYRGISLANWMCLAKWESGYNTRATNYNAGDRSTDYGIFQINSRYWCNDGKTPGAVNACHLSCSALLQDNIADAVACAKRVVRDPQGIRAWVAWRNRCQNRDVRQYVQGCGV
Put plainly: SPR (Biacore single chain kinetics); also 1H-15N HSQC NMR titration and RDCs of the bound state. In kind it is binding.

Each structure is given as a SMILES string.

The Kd is the equilibrium constant for the complex coming apart. Low readings indicate higher affinity, high ones lower affinity. `CC(=O)N[C@H]1[C@H](O[C@H]2[C@H](O)[C@@H](NC(C)=O)C(O)O[C@@H]2CO)O[C@H](CO)[C@@H](O[C@@H]2O[C@H](CO)[C@@H](O)[C@H](O)[C@H]2NC(C)=O)[C@@H]1O` (stereo partly shown) [triNAG, N,N′,N′′-Triacetylchitotriose] registered a Kd of around 9 µM.
